Reference: US5444052A, “Amphotericin B composition with enhanced fungal activity” (Temple University of the Commonwealth System of Higher …, priority 1993, dated 1995)
Like-named read-outs stand apart in the source and are kept apart here.

Columns and labels:
laboratory animals = conditions: fed in very high doses; cited from earlier work
mice = conditions: cited from earlier work
phagocytes = conditions: cited from earlier work
[1] = cited from earlier work
C. neoformans = test: Checkerboard minimum inhibitory concentration and synergy test (microtiter plate and agar plate analysis) on C. neoformans; type: cell-based, Cryptococcus neoformans; conditions: for Fold MIC decrease: added compound with other compound at 1/2 MIC vs alone; for 1/2 MIC: half of MIC, concentration used in the combination; for MIC: Cryptococcus neoformans; for MIC / synergistic effect of DDG isomers on antifungal effect of amphotericin B: 24 h; for synergistic effect of DDG isomers on antifungal effect of amphotericin B: 37° C. (FIG. 11)
C. albicans = test: Checkerboard minimum inhibitory concentration and synergy test (microtiter plate and agar plate analysis) on Candida albicans; type: cell-based; conditions: for Fold MIC decrease: added compound with other compound at 1/2 MIC vs alone; for 1/2 MIC: half of MIC, concentration used in the combination; for MIC: Candida albicans, 24 h
neurons = conditions: cited from earlier work
human cells = conditions: cited from earlier work
[2] = test system: bacteria, rickettsiae, and viruses; conditions: cited from earlier work
erythrocytes = conditions: by binding to cholesterol in the cell membrane, causing anemia; cited from earlier work
[3] = intravenous, 1 mg/kg, cited from earlier work
[4] = 25° C., agar plate, compound alone, read-out: MIC
[5] = 25° C., microtiter plate, compound alone, read-out: MIC
[6] = 37° C., agar plate, compound alone, read-out: MIC
[7] = 37° C., microtiter plate, compound alone, read-out: MIC
[8] = 25° C., agar plate, compound alone
[9] = 25° C., microtiter plate, compound alone
[10] = 37° C., agar plate, compound alone
[11] = 37° C., microtiter plate, compound alone

## CCCCCCCCCCCCOCC(O)CO (racemic) [rac-1-DDG, rac-1-O-dodecylglycerol]
Laboratory animals
  toxicity: does not appear to be toxic
mice; 1 g/kg/day in feed, 4 weeks
  organ weights or body weights: did not significantly alter the organ weights or body weights of mice
mice; during feeding, 1 g/kg/day
  linoleolyl moieties of total lipids: concomitant decrease
  saturated acyl moieties of total lipids: marked increase
mice; four weeks after removal of compound from diet
  lipids of organs and tissues: close resemblance to those of a control group
phagocytes
  stimulation of phagocytes to ingest foreign substances: stimulated
[1]
  solubility in water: relatively good solubility in water
C. neoformans; 25° C., agar plate
  Fold MIC decrease: 80
  1/2 MIC: 5 µg/mL
C. neoformans; 25° C., microtiter plate
  Fold MIC decrease: 120
  1/2 MIC: 7.5 µg/mL
C. neoformans; 37° C., agar plate
  Fold MIC decrease: 160
  1/2 MIC: 10 µg/mL
C. neoformans; 37° C., microtiter plate
  Fold MIC decrease: 50
  1/2 MIC: 7.5 µg/mL
C. neoformans; [4]
  MIC: 10 µg/mL
C. neoformans; [5]
  MIC: 15 µg/mL
C. neoformans; 25° C., microtiter plate, in presence of the other compound at 1/2 MIC (rac-1-DDG 7.5 or Amph. B 1.13 μg/ml), read-out: Resulting MIC of added compound
  MIC: 0.125 µg/mL
C. neoformans; 25° C., agar plate, in presence of the other compound at 1/2 MIC (rac-1-DDG 5 or Amph. B 1.13 μg/ml), read-out: Resulting MIC of added compound
  MIC: 0.125 µg/mL
C. neoformans; [6]
  MIC: 20 µg/mL
C. neoformans; [7]
  MIC: 15 µg/mL
C. neoformans; 37° C., agar plate, in presence of the other compound at 1/2 MIC (rac-1-DDG 10 or Amph. B 1.25 μg/ml), read-out: Resulting MIC of added compound
  MIC: 0.125 µg/mL
C. neoformans; 37° C., microtiter plate, in presence of the other compound at 1/2 MIC (rac-1-DDG 7.5 or Amph. B 0.75 μg/ml), read-out: Resulting MIC of added compound
  MIC: 0.3 µg/mL
C. albicans; 25° C., agar plate
  Fold MIC decrease: 80
  1/2 MIC: 10 µg/mL
C. albicans; 25° C., microtiter plate
  Fold MIC decrease: 36
  1/2 MIC: 5 µg/mL
C. albicans; 37° C., agar plate
  Fold MIC decrease: 40
  1/2 MIC: 7.5 µg/mL
C. albicans; 37° C., microtiter plate
  Fold MIC decrease: 40
  1/2 MIC: 7.5 µg/mL
C. albicans; [4]
  MIC: 20 µg/mL
C. albicans; [5]
  MIC: 10 µg/mL
C. albicans; 25° C., agar plate, in presence of the other compound at 1/2 MIC (rac-1-DDG 10 or Amph. B 1.13 μg/ml), read-out: Resulting MIC of added compound
  MIC: 0.25 µg/mL
C. albicans; 25° C., microtiter plate, in presence of the other compound at 1/2 MIC (rac-1-DDG 5 or Amph. B 1 μg/ml), read-out: Resulting MIC of added compound
  MIC: 0.281 µg/mL
C. albicans; [6]
  MIC: 15 µg/mL
C. albicans; [7]
  MIC: 15 µg/mL
C. albicans; 37° C., agar plate, in presence of the other compound at 1/2 MIC (rac-1-DDG 7.5 or Amph. B 1 μg/ml), read-out: Resulting MIC of added compound
  MIC: 0.375 µg/mL
C. albicans; 37° C., microtiter plate, in presence of the other compound at 1/2 MIC (rac-1-DDG 7.5 or Amph. B 0.5 μg/ml), read-out: Resulting MIC of added compound
  MIC: 0.375 µg/mL
neurons
  neuronal growth: promote neuronal growth

## CCCCCCCCCCCCOC(CO)CO [2-DDG, 2-O-dodecylglycerol]
C. neoformans
  synergistic effect of DDG isomers on antifungal effect of amphotericin B: synergistic effect

## Nc1nc(=O)[nH]cc1F [Fluorocytosine]
Human cells
  toxicity to human cells: toxic to human cells

## CCCCCCCCCCCCOC[C@H](O)CO [Sn-3-DDG, sn-3-O-dodecylglycerol]
C. neoformans
  synergistic effect of DDG isomers on antifungal effect of amphotericin B: synergistic effect

## C[C@@H]1[C@H](O)[C@@H](C)/C=C/C=C/C=C/C=C/C=C/C=C/C=C/[C@H](O[C@@H]2O[C@H](C)[C@@H](O)[C@H](N)[C@@H]2O)C[C@@H]2O[C@](O)(C[C@@H](O)C[C@@H](O)[C@H](O)CC[C@@H](O)C[C@@H](O)CC(=O)O[C@H]1C)C[C@H](O)[C@H]2C(=O)O [amphotericin B, [1R-(1R*,3S*, 5R*,6R*,9R*, 11R*,15S*,16R*,17R*,18S*,19E,21E,23E,25E,27E,29E,31E,33R*, 35S*,36R*,37S,)]-33-[(3-amino-3,6-dideoxy-β-D-mannopyranosyl)oxy]1,3,5,6,9,11,17,37-octahydroxy-15,16,18-trimethyl-13-oxo-14,39-dioxabicyclo-[33.3.1]nonatriaconta-19,21,23,25,27,29,31-heptaene-36-carboxylic acid]
[2]
  effect on bacteria, rickettsiae, and viruses: no effect
[1]; crystalline
  solubility in water: insoluble in water
C. neoformans; 25° C., agar plate
  Fold MIC decrease: 72
  1/2 MIC: 1.13 µg/mL
C. neoformans; 25° C., microtiter plate
  Fold MIC decrease: 48
  1/2 MIC: 1.12 µg/mL
C. neoformans; 25° C., microtiter plate, listed as Amph. B
  1/2 MIC: 1.13 µg/mL
C. neoformans; 37° C., agar plate
  Fold MIC decrease: 80
  1/2 MIC: 1.25 µg/mL
C. neoformans; 37° C., microtiter plate
  Fold MIC decrease: 12.7
  1/2 MIC: 0.75 µg/mL
C. neoformans; [8]
  MIC: 2.25 µg/mL
C. neoformans; [9]
  MIC: 2.25 µg/mL
C. neoformans; [10]
  MIC: 2.5 µg/mL
C. neoformans; [11]
  MIC: 1.5 µg/mL
C. neoformans; read-out: Resulting MIC of added compound, 25° C., 24 h, microtiter plate, in presence of the other compound at 1/2 MIC (rac-1-DDG 7.5 or Amph. B 1.13 μg/ml)
  MIC: 0.047 µg/mL
C. neoformans; read-out: Resulting MIC of added compound, 25° C., agar plate, in presence of the other compound at 1/2 MIC (rac-1-DDG 5 or Amph. B 1.13 μg/ml)
  MIC: 0.0313 µg/mL
C. neoformans; read-out: Resulting MIC of added compound, 37° C., agar plate, in presence of the other compound at 1/2 MIC (rac-1-DDG 10 or Amph. B 1.25 μg/ml)
  MIC: 0.0313 µg/mL
C. neoformans; read-out: Resulting MIC of added compound, 37° C., microtiter plate, in presence of the other compound at 1/2 MIC (rac-1-DDG 7.5 or Amph. B 0.75 μg/ml)
  MIC: 0.118 µg/mL
erythrocytes
  damage to erythrocytes: damages erythrocytes
[3]; by end of infusion
  peak serum concentrations: 2-3 micrograms/ml
[3]; for up to 24 hours after infusion
  serum concentration: above 0.5 micrograms/ml
C. albicans; 25° C., agar plate
  Fold MIC decrease: 72
  1/2 MIC: 1.13 µg/mL
C. albicans; 25° C., microtiter plate
  Fold MIC decrease: 64
  1/2 MIC: 1 µg/mL
C. albicans; 37° C., agar plate
  Fold MIC decrease: 10.6
  1/2 MIC: 1 µg/mL
C. albicans; 37° C., microtiter plate
  Fold MIC decrease: 5.3
  1/2 MIC: 0.5 µg/mL
C. albicans; [8]
  MIC: 2.25 µg/mL
C. albicans; [9]
  MIC: 2 µg/mL
C. albicans; [10]
  MIC: 2 µg/mL
C. albicans; [11]
  MIC: 1 µg/mL
C. albicans; read-out: Resulting MIC of added compound, 25° C., agar plate, in presence of the other compound at 1/2 MIC (rac-1-DDG 10 or Amph. B 1.13 μg/ml)
  MIC: 0.0313 µg/mL
C. albicans; read-out: Resulting MIC of added compound, 25° C., microtiter plate, in presence of the other compound at 1/2 MIC (rac-1-DDG 5 or Amph. B 1 μg/ml)
  MIC: 0.0313 µg/mL
C. albicans; read-out: Resulting MIC of added compound, 37° C., agar plate, in presence of the other compound at 1/2 MIC (rac-1-DDG 7.5 or Amph. B 1 μg/ml)
  MIC: 0.188 µg/mL
C. albicans; read-out: Resulting MIC of added compound, 37° C., microtiter plate, in presence of the other compound at 1/2 MIC (rac-1-DDG 7.5 or Amph. B 0.5 μg/ml)
  MIC: 0.188 µg/mL

## CCCCCCCCCCCCOC[C@@H](O)CO [sn-1-DDG, sn-1-O-dodecylglycerol]
C. neoformans
  synergistic effect of DDG isomers on antifungal effect of amphotericin B: synergistic effect
